Series [1] can be described thus: Inhibition of tubulin polymerization.
A short description of series [2]: Displacement of [3H]colchicine from tubulin. The settings on record: concentration not given here. (In general: In a radioligand displacement assay an active substance lowers the binding of a labelled ligand.)
Series [3] can be described thus: Toxicity in brine shrimp. The settings on record: artemia, in vivo; read-out: LD50 (the source's name). In kind it is organism-based.
The subject of the next series is L1210. Kind of series: Cytotoxicity against mouse L1210 cells. In kind it is functional, cell-based.
In the next series the test system is CA46. Kind of series: Cytotoxicity against human CA46 cells. The format is functional, cell-based.

The values that follow come from ChEMBL document CHEMBL1150103, “Curacins B and C, New Antimitotic Natural Products from the Marine Cyanobacterium Lyngbya majuscula” (J Nat Prod, 1995).

The IC50 is the concentration at which inhibition is half-maximal. A high value points to a need for much substance. The term inhibition denotes the drop in the measured response relative to a control, in per cent. Low values mean little suppression, high ones strong suppression.

`C=CC[C@@H](CC/C(C)=C/C=C/CC/C=C\[C@@H]1CSC([C@@H]2C[C@@H]2C)=N1)OC` [CURACIN A]: in series [1], the IC50 is 1400 nM. Besides, in series [2], the inhibition was 96%. In series [3], the LC50 came to 8 nM.
On to `C=CC[C@@H](CC/C(C)=C/C=C\CC/C=C\[C@@H]1CSC([C@@H]2C[C@@H]2C)=N1)OC` [CURACIN B], for which the LC50 in series [3] was found to be 38 nM. In addition, the Activity result in the series with L1210 and with CA46 was “Toxic” throughout.
For `C=CC[C@@H](CC/C(C)=C\C=C\CC/C=C\[C@@H]1CSC([C@@H]2C[C@@H]2C)=N1)OC` [CURACIN C], the LC50 in series [3] was found to be 54 nM. For the same compound, the Activity result in the series on L1210 and with CA46 was “Toxic” throughout.
